According to patent US9994617B2, “Modulation of structured polypeptide specificity” (BICYCLE THERAPEUTICS LIMITED, priority 2011, dated 2018):
pKi: −log10 of the molar value. Numbered stars: 1 amine (or outer) side, 2 acyl side, 3 side chain; on linkers, the order of the positions; unused ones are H or OH. Bridge positions count the residues as written; N and C are the ends. Square brackets hold non-standard residues; d marks the D form. Peptide text beside a SMILES is read from it. NMeW = CN[C@@H](Cc1c[nH]c2ccccc12)C(=O)O; TBMB = c1c(C[*:1])cc(C[*:3])cc1C[*:2]; NMeC = CN[C@@H](CS)C(=O)O; NMeS = CN[C@@H](CO)C(=O)O; NMeA = CN[C@@H](C)C(=O)O

Biological target: human plasma kallikrein (hPK) (Homo sapiens, UniProt P03952)
Experiment: Enzyme inhibition assay, human plasma kallikrein
Settings: for fold reduction in affinity to kallikrein compared to wildtype peptide: versus Ac-06-34-18(TMB)-NH2

Compound | pKi | fold reduction in affinity to kallikrein compared to wildtype peptide [fold]
CC(=O)N[C@H]1CSCc2cc3cc(c2)CSC[C@H](NC(=O)[C@H](Cc2ccc(NC(=N)N)cc2)NC(=O)[C@H](C)NC(=O)[C@@H]2CCCN2C(=O)[C@H](Cc2c[nH]c4ccccc24)NC(=O)[C@H](CO)NC1=O)C(=O)N[C@@H](CC(C)C)C(=O)N[C@@H](Cc1c[nH]cn1)C(=O)N[C@@H](CCC(N)=O)C(=O)N[C@@H](CC(=O)O)C(=O)N[C@@H](CC(C)C)C(=O)N[C@H](C(N)=O)CSC3 [Ac-(06-34-18) 4GuanPhe5] | 9.52 | 2
CC(=O)N[C@H]1CSCc2cc3cc(c2)CSC[C@H](NC(=O)[C@H](CCCNC(=N)N)NC(=O)[C@H](C)NC(=O)[C@H](C)NC(=O)[C@H](C)NC(=O)[C@H](CO)NC1=O)C(=O)N[C@@H](CC(C)C)C(=O)N[C@@H](Cc1c[nH]cn1)C(=O)N[C@@H](CCC(N)=O)C(=O)N[C@@H](CC(=O)O)C(=O)N[C@@H](CC(C)C)C(=O)N[C@H](C(N)=O)CSC3 [Ac-(06-34-18) A2A3] (Ac-CSAAARCLHQDLC-NH2; linker 1-7-13 via TBMB) | 4.73 | 
CC(=O)N[C@H]1CSCc2cc3cc(c2)CSC[C@H](NC(=O)[C@H](CCCNC(=N)N)NC(=O)[C@H](C)NC(=O)[C@H](CCC(N)=O)NC(=O)[C@H](C)NC(=O)[C@H](CO)NC1=O)C(=O)N[C@@H](CC(C)C)C(=O)N[C@@H](Cc1c[nH]cn1)C(=O)N[C@@H](CCC(N)=O)C(=O)N[C@@H](CC(=O)O)C(=O)N[C@@H](CC(C)C)C(=O)N[C@H](C(N)=O)CSC3 [Ac-(06-34-18) A2Q3] (Ac-CSAQARCLHQDLC-NH2; linker 1-7-13 via TBMB) | 4.80 | 
CC(=O)N[C@H]1CSCc2cc3cc(c2)CSC[C@H](NC(=O)[C@H](CCNC(=N)N)NC(=O)[C@H](C)NC(=O)[C@@H]2CCCN2C(=O)[C@H](Cc2c[nH]c4ccccc24)NC(=O)[C@H](CO)NC1=O)C(=O)N[C@@H](CC(C)C)C(=O)N[C@@H](Cc1c[nH]cn1)C(=O)N[C@@H](CCC(N)=O)C(=O)N[C@@H](CC(=O)O)C(=O)N[C@@H](CC(C)C)C(=O)N[C@H](C(N)=O)CSC3 [Ac-(06-34-18) Agb5] | 7.08 | 
CC(=O)N[C@H]1CSCc2cc3cc(c2)CSC[C@H](NC(=O)[C@H](CNC(=N)N)NC(=O)[C@H](C)NC(=O)[C@@H]2CCCN2C(=O)[C@H](Cc2c[nH]c4ccccc24)NC(=O)[C@H](CO)NC1=O)C(=O)N[C@@H](CC(C)C)C(=O)N[C@@H](Cc1c[nH]cn1)C(=O)N[C@@H](CCC(N)=O)C(=O)N[C@@H](CC(=O)O)C(=O)N[C@@H](CC(C)C)C(=O)N[C@H](C(N)=O)CSC3 [Ac-(06-34-18) Agp5] | 5.75 | 
CC(=O)N[C@H]1CSCc2cc3cc(c2)CSC[C@H](NC(=O)[C@H](CCCNC(N)=O)NC(=O)[C@H](C)NC(=O)[C@@H]2CCCN2C(=O)[C@H](Cc2c[nH]c4ccccc24)NC(=O)[C@H](CO)NC1=O)C(=O)N[C@@H](CC(C)C)C(=O)N[C@@H](Cc1c[nH]cn1)C(=O)N[C@@H](CCC(N)=O)C(=O)N[C@@H](CC(=O)O)C(=O)N[C@@H](CC(C)C)C(=O)N[C@H](C(N)=O)CSC3 [Ac-(06-34-18) CitS] | 5.10 | 
CC(=O)N[C@H]1CSCc2cc3cc(c2)CSC[C@H](NC(=O)[C@H](CCCNC(=N)N)NC(=O)[C@@H](C)NC(=O)[C@@H]2CCCN2C(=O)[C@H](Cc2c[nH]c4ccccc24)NC(=O)[C@H](CO)NC1=O)C(=O)N[C@@H](CC(C)C)C(=O)N[C@@H](Cc1c[nH]cn1)C(=O)N[C@@H](CCC(N)=O)C(=O)N[C@@H](CC(=O)O)C(=O)N[C@@H](CC(C)C)C(=O)N[C@H](C(N)=O)CSC3 [Ac-(06-34-18) D-Ala4] | 5.92 | 7000
CC(=O)N[C@H]1CSCc2cc3cc(c2)CSC[C@H](NC(=O)[C@@H](CCCNC(=N)N)NC(=O)[C@H](C)NC(=O)[C@@H]2CCCN2C(=O)[C@H](Cc2c[nH]c4ccccc24)NC(=O)[C@H](CO)NC1=O)C(=O)N[C@@H](CC(C)C)C(=O)N[C@@H](Cc1c[nH]cn1)C(=O)N[C@@H](CCC(N)=O)C(=O)N[C@@H](CC(=O)O)C(=O)N[C@@H](CC(C)C)C(=O)N[C@H](C(N)=O)CSC3 [Ac-(06-34-18) D-Arg5] | 7.28 | 300
CC(=O)N[C@H]1CSCc2cc3cc(c2)CSC[C@@H](NC(=O)[C@H](CCCNC(=N)N)NC(=O)[C@H](C)NC(=O)[C@@H]2CCCN2C(=O)[C@H](Cc2c[nH]c4ccccc24)NC(=O)[C@H](CO)NC1=O)C(=O)N[C@@H](CC(C)C)C(=O)N[C@@H](Cc1c[nH]cn1)C(=O)N[C@@H](CCC(N)=O)C(=O)N[C@@H](CC(=O)O)C(=O)N[C@@H](CC(C)C)C(=O)N[C@H](C(N)=O)CSC3 [Ac-(06-34-18) D-Cys2] | 6.63 | 
CC(=O)N[C@H]1CSCc2cc3cc(c2)CSC[C@H](NC(=O)[C@H](CCCNC(=N)N)NC(=O)[C@H](C)NC(=O)[C@H]2CCCN2C(=O)[C@H](Cc2c[nH]c4ccccc24)NC(=O)[C@H](CO)NC1=O)C(=O)N[C@@H](CC(C)C)C(=O)N[C@@H](Cc1c[nH]cn1)C(=O)N[C@@H](CCC(N)=O)C(=O)N[C@@H](CC(=O)O)C(=O)N[C@@H](CC(C)C)C(=O)N[C@H](C(N)=O)CSC3 [Ac-(06-34-18) D-Pro3] | 6.17 | 
CC(=O)N[C@H]1CSCc2cc3cc(c2)CSC[C@H](NC(=O)[C@H](CCCNC(=N)N)NC(=O)[C@H](C)NC(=O)[C@@H]2CCCN2C(=O)[C@@H](Cc2c[nH]c4ccccc24)NC(=O)[C@H](CO)NC1=O)C(=O)N[C@@H](CC(C)C)C(=O)N[C@@H](Cc1c[nH]cn1)C(=O)N[C@@H](CCC(N)=O)C(=O)N[C@@H](CC(=O)O)C(=O)N[C@@H](CC(C)C)C(=O)N[C@H](C(N)=O)CSC3 [Ac-(06-34-18) D-Trp2] | 5.12 | 45000
CC(=O)N[C@H]1CSCc2cc3cc(c2)CSC[C@H](NC(=O)[C@H](CCCNC(=N)N)NC(=O)[C@H](C)N(C)C(=O)[C@@H]2CCCN2C(=O)[C@H](Cc2c[nH]c4ccccc24)NC(=O)[C@H](CO)NC1=O)C(=O)N[C@@H](CC(C)C)C(=O)N[C@@H](Cc1c[nH]cn1)C(=O)N[C@@H](CCC(N)=O)C(=O)N[C@@H](CC(=O)O)C(=O)N[C@@H](CC(C)C)C(=O)N[C@H](C(N)=O)CSC3 [Ac-(06-34-18) NMeAla4] (Ac-CSWP[NMeA]RCLHQDLC-NH2; linker 1-7-13 via TBMB) | 6.46 | 
CC(=O)N[C@H]1CSCc2cc3cc(c2)CSC[C@@H](C(=O)N[C@@H](CC(C)C)C(=O)N[C@@H](Cc2c[nH]cn2)C(=O)N[C@@H](CCC(N)=O)C(=O)N[C@@H](CC(=O)O)C(=O)N[C@@H](CC(C)C)C(=O)N[C@H](C(N)=O)CSC3)N(C)C(=O)[C@H](CCCNC(=N)N)NC(=O)[C@H](C)NC(=O)[C@@H]2CCCN2C(=O)[C@H](Cc2c[nH]c3ccccc23)NC(=O)[C@H](CO)NC1=O [Ac-(06-34-18) NMeCys2] (Ac-CSWPAR[NMeC]LHQDLC-NH2; linker 1-7-13 via TBMB) | 6.38 | 
CC(=O)N[C@H]1CSCc2cc3cc(c2)CSC[C@H](NC(=O)[C@H](CCCNC(=N)N)NC(=O)[C@H](C)N(C)C(=O)[C@@H]2CCCN2C(=O)[C@H](Cc2c[nH]c4ccccc24)NC(=O)[C@H](CO)N(C)C1=O)C(=O)N[C@@H](CC(C)C)C(=O)N[C@@H](Cc1c[nH]cn1)C(=O)N[C@@H](CCC(N)=O)C(=O)N[C@@H](CC(=O)O)C(=O)N[C@@H](CC(C)C)C(=O)N[C@H](C(N)=O)CSC3 [Ac-(06-34-18) NMeSer1, NMeAla4] (Ac-C[NMeS]WP[NMeA]RCLHQDLC-NH2; linker 1-7-13 via TBMB) | 6.35 | 
CC(=O)N[C@H]1CSCc2cc3cc(c2)CSC[C@H](NC(=O)[C@H](CCCNC(=N)N)NC(=O)[C@H](C)NC(=O)[C@@H]2CCCN2C(=O)[C@H](Cc2c[nH]c4ccccc24)NC(=O)[C@H](CO)N(C)C1=O)C(=O)N[C@@H](CC(C)C)C(=O)N[C@@H](Cc1c[nH]cn1)C(=O)N[C@@H](CCC(N)=O)C(=O)N[C@@H](CC(=O)O)C(=O)N[C@@H](CC(C)C)C(=O)N[C@H](C(N)=O)CSC3 [Ac-(06-34-18) NMeSer1] (Ac-C[NMeS]WPARCLHQDLC-NH2; linker 1-7-13 via TBMB) | 9.30 | 
CC(=O)N[C@H]1CSCc2cc3cc(c2)CSC[C@H](NC(=O)[C@H](CCCNC(=N)N)NC(=O)[C@H](C)NC(=O)[C@@H]2CCCN2C(=O)[C@H](Cc2c[nH]c4ccccc24)N(C)C(=O)[C@H](CO)NC1=O)C(=O)N[C@@H](CC(C)C)C(=O)N[C@@H](Cc1c[nH]cn1)C(=O)N[C@@H](CCC(N)=O)C(=O)N[C@@H](CC(=O)O)C(=O)N[C@@H](CC(C)C)C(=O)N[C@H](C(N)=O)CSC3 [Ac-(06-34-18) NMeTrp2] (Ac-CS[NMeW]PARCLHQDLC-NH2; linker 1-7-13 via TBMB) | 6.64 | 
CC(=O)N[C@H]1CSCc2cc3cc(c2)CSC[C@H](NC(=O)[C@H](CCCNC(=N)N)NC(=O)[C@H](Cc2c[nH]c4ccccc24)NC(=O)[C@H](C)NC(=O)[C@H](CO)NC(=O)[C@@H]2CCCN2C1=O)C(=O)N[C@@H](CC(C)C)C(=O)N[C@@H](Cc1c[nH]cn1)C(=O)N[C@@H](CCC(N)=O)C(=O)N[C@@H](CC(=O)O)C(=O)N[C@@H](CC(C)C)C(=O)N[C@H](C(N)=O)CSC3 [Ac-(06-34-18) Scram1] (Ac-CPSAWRCLHQDLC-NH2; linker 1-7-13 via TBMB) | 5.96 | 
CC(=O)N[C@H]1CSCc2cc3cc(c2)CSC[C@H](NC(=O)[C@H](CCCNC(=N)N)NC(=O)[C@@H]2CCCN2C(=O)[C@H](CO)NC(=O)[C@H](C)NC(=O)[C@H](Cc2c[nH]c4ccccc24)NC1=O)C(=O)N[C@@H](CC(C)C)C(=O)N[C@@H](Cc1c[nH]cn1)C(=O)N[C@@H](CCC(N)=O)C(=O)N[C@@H](CC(=O)O)C(=O)N[C@@H](CC(C)C)C(=O)N[C@H](C(N)=O)CSC3 [Ac-(06-34-18) Scram2] (Ac-CWASPRCLHQDLC-NH2; linker 1-7-13 via TBMB) | 4.94 | 
CC(=O)N[C@H]1CSCc2cc3cc(c2)CSC[C@H](NC(=O)[C@H](CCCNC(=N)N)NC(=O)[C@H](CO)NC(=O)[C@H](Cc2c[nH]c4ccccc24)NC(=O)[C@@H]2CCCN2C(=O)[C@H](C)NC1=O)C(=O)N[C@@H](CC(C)C)C(=O)N[C@@H](Cc1c[nH]cn1)C(=O)N[C@@H](CCC(N)=O)C(=O)N[C@@H](CC(=O)O)C(=O)N[C@@H](CC(C)C)C(=O)N[C@H](C(N)=O)CSC3 [Ac-(06-34-18) Scram3] (Ac-CAPWSRCLHQDLC-NH2; linker 1-7-13 via TBMB) | 5.72 | 
